We go through 31 compounds from US20110071197A1, “BIS-ARYL COMPOUNDS FOR USE AS MEDICAMENTS” (priority 2008, published 2011).

The target of this assay is T1, Recombinant human LTC4 synthase (Homo sapiens, UniProt Q16873).
T1 construct: made in house; host or cells: Pichia pastoris
T1 sequence (Q16873 1-150): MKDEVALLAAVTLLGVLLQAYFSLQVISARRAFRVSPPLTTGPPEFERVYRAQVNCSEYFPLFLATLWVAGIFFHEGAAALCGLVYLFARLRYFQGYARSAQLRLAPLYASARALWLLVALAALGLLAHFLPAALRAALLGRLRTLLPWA
In words: LTC4 synthase in vitro assay (HTRF detection of LTC4). Format: biochemical. The settings on record: total concentration of title compound in the assay 10 μM; HTRF method. On the procedure: Alternatively HTRF detection of LTC4 can be used:
In the assay, LTC4 synthase catalyses the reaction where the substrate LTA4 is converted to LTC4. Recombinant human LTC4 synthase is expressed in Piccia pastoralis and the purified enzyme is dissolved in 25 mM Tris-buffer pH 7.8 supplemented with 0.1 mM glutathione (GSH) and stored at −80° C. The assay is performed in phosphate buffered saline (PBS) pH 7.4 and 5 mM GSH in 384-well plates.
The following is added chronologically to each well: • 1. 48 μl LTC4 synthase in PBS with 5 mM GSH. The total protein concentration in this solution is 0.5 μg/ml. • 2. […] Incubation of the plate at room temperature for 10 minutes. • 4. 1 μl LTA4 (final conc. 2.5 μM). • 5. Incubation of the plate at room temperature for 5 minutes. • 6. 10 μl of the incubation mixture is analysed using homogeneous time resolved fluorescent (HTRF) detection.
Background: In TR-FRET formats the signal depends on donor and acceptor labels being close together.
As a reminder, the inhibition is the change of the read-out against control, counted positive when it falls. With `COc1ccc(S(=O)(=O)Nc2ccc(Oc3ccc(N(C)C(=O)c4ccc(C(C)(C)C)cc4)cc3)cc2C(=O)O)cc1` [21:3, 5-{4-[(4-t-Butyl-benzoyl)-methyl-amino]-phenoxy}-2-(4-methoxy-benzenesulfonylamino)-benzoic acid], the inhibition at 10 µM was 99%.
Same read-out and setting: in the case of `CCCCOc1ccc(S(=O)(=O)Nc2ccc(Oc3cccc(C(=O)NS(=O)(=O)c4ccc(F)cc4)c3)cc2C(=O)O)cc1` [20:7, 2-(4-Butoxy-benzenesulfonylamino)-5-[3-(4-fluoro-benzenesulfonylamino-carbonyl)-phenoxy]-benzoic acid] it was 94%.
As for `O=C(O)c1cc(Oc2ccc(Nc3ccc4occc4c3)c(C(=O)O)c2)ccc1Nc1ccc(F)c(F)c1` [1:4, 5-[3-carboxy-4-(3,4-difluoro-phenylamino)phenyloxy]-2-(benzofuran-5-ylamino)benzoic acid], the inhibition at 10 µM worked out at 100%.
Same read-out and setting: in the case of `O=C(O)Cc1cc(Oc2ccc(NC(=O)c3ccccc3)cc2)ccc1NC(=O)c1cccc(Cl)c1Cl` [17:2, [5-(4-benzoylamino-phenoxy)-2-(2,3-dichloro-benzoylamino)-phenyl]-acetic acid] it was 99%; in that of `O=C(Nc1ccc(Oc2ccc(S(=O)(=O)Nc3ccc(F)c(F)c3)cc2)cc1C(=O)O)c1ccc(Cl)cc1Cl` [25:4, 2-(2,4-Dichlorobenzoylamino)-5-[4-(3,4-difluorophenylsulfamoyl)-phenoxy]benzoic acid], 100%; in that of `CCCCc1ccc(S(=O)(=O)N(C)c2ccc(Oc3ccc(NC(=O)c4ccc(OC(C)C)cc4)c(C(=O)O)c3)cc2)cc1` [11:6, 5-{4-[(4-butylbenzene-sulfonyl)-methylamino]phenoxy}-2-(4-isopropoxybenzoylamino)-benzoic acid], 96%.
Still for that read-out and setting: in the case of `O=C(O)c1cc(Oc2ccc(N(c3ccc(C(=O)C4CC4)cc3)c3ccc(C(=O)C4CC4)cc3)cc2)ccc1Nc1ccc(C(=O)C2CC2)cc1` [12:4, 5-{4-[bis-(4-cyclopropane-carbonyl-phenyl)-amino]-phenoxy}-2-(4-cycloprop-anecarbonyl-phenylamino)-benzoic acid] it was 87%; in that of `O=C(Nc1ccc([S+]([O-])c2ccc(NC(=O)c3cccc(Cl)c3)c(C(=O)O)c2)cc1C(=O)O)c1cccc(Cl)c1` [15:2, 2-(3-chlorobenzamido)-5-(4-(3-chlorobenzamido)-3-carboxyphenylsulfinyl)benzoic acid], 100%.
In the case of `CCCCc1ccc(C(=O)Nc2ccc(Oc3ccc(NS(=O)(=O)c4ccccc4)c(C(=O)O)c3)cc2C(=O)O)cc1` [Example 7:2], the “% inh.” value was 100%.
For `O=C(O)c1cc(Oc2cccc(Oc3ccc(F)c(F)c3)c2)ccc1Nc1ccc(F)c(F)c1` [Example 28:3, 5-[3-(3,4-Difluoro-phenoxy)-phenoxy]-2-(3,4-difluoro-phenylamino)-benzoic acid], the inhibition at 10 µM is 96%.
Still for that read-out and setting: in the case of `O=C(Nc1ccc(Oc2ccc([N+](=O)[O-])cc2)cc1C(=O)O)c1ccc(Cl)cc1Cl` [8:2, 2-(2,4-dichlorobenzamido)-5-(4-nitrophenoxy)benzoic acid] it was 93%.
As for `O=C(Nc1ccc(S(=O)(=O)c2ccc(NC(=O)c3ccc(C(F)(F)F)cc3)c(C(=O)O)c2)cc1C(=O)O)c1ccc(C(F)(F)F)cc1` [16:2, 2-(4-(trifluoromethyl)benz-amido)-5-((4-(4-(trifluoro-methyl)benzamido)-3-carboxyphenyl)sulfonyl)-benzoic acid], the “% inh.” value came out at 97%.
Take `CC(C)(C)c1ccc(C(=O)Nc2ccc(Oc3ccc(NC(=O)c4ccccn4)c(C(=O)O)c3)cc2)cc1` [8:18, 5-[4-(4-tert-Butylbenzoyl-amino)phenoxy]-2-[(pyridine-2-carbonyl)-amino]benzoic acid]: the inhibition at 10 µM worked out at 99%.
In the case of `O=C(Nc1ccc(C(F)(F)F)cc1)Nc1ccc(Oc2ccc(S(=O)(=O)Nc3ccc(Cl)cc3)cc2)cc1C(=O)O` [25:1, 5-[4-(4-Chlorophenylsulfamoyl)-phenoxy]-2-[3-(4-trifluoromethyl-phenyl)ureido]benzoic acid], the inhibition at 10 µM is 98%.
The same measure, in the same setting: in the case of `CC(C)(C)c1ccc(C(=O)Nc2ccc(Oc3ccc(NC(=O)c4ccc(Cl)nc4Cl)c(C(=O)O)c3)cc2)cc1` [8:20, 5-[4-(4-tert-Butylbenzoyl-amino)phenoxy]-2-[(2,6-di-chloropyridine-3-carbonyl)-amino]benzoic acid] it was 96%.
Same read-out and setting: in the case of `O=C(Nc1ccc(Oc2ccc(NC(=O)c3cccc(Cl)c3)c(C(=O)O)c2)cc1C(=O)O)c1ccccc1` [5:3, 5-[3-carboxy-4-(3-chlorobenzamido)-phenyloxy]-2-benzamidobenzoic acid] it was 100%; in that of `CCCCOc1ccc(S(=O)(=O)Nc2ccc(Oc3ccc(NC(=O)c4ccccc4)cc3)cc2CC(=O)O)cc1` [17:7, [5-(4-benzoylamino-phenoxy)-2-(4-butoxy-benzenesulfonyl-amino)-phenyl]-acetic acid], 95%; in that of `CCCCc1ccc(C(=O)Nc2cccc(Oc3ccc(NC(=O)c4ccccc4OC)c(C(=O)O)c3)c2)cc1` [10:3, 5-[(3-(4-(1-butyl)benzoylamino)-phenoxy)]-2-(2-methoxybenzoyl-amino)benzoic acid], 95%.
The same measure, in the same setting: in the case of `O=C(O)Cc1cc(Oc2ccc(NC(=O)c3ccc(C(F)(F)F)cc3F)c(C(=O)O)c2)ccc1NC(=O)c1cccc(Cl)c1` [6:4, 5-[3-carboxymethyl-4-(3-chloro-benzoylamino)-phenoxy]-2-(2-fluoro-4-trifluoromethylbenzoyl-amino)benzoic acid] it was 96%.
As for `O=C(Nc1ccc([S+]([O-])c2ccc(NC(=O)c3ccc(C(F)(F)F)cc3)c(C(=O)O)c2)cc1C(=O)O)c1ccc(C(F)(F)F)cc1` [15:3, 2-(4-(trifluoromethyl)benz-amido)-5-((4-(4-(trifluoromethyl)benzamido)-3-carboxy-phenyl)sulfinyl)benzoic acid], the “% inh.” value was determined as 99%.
Consider `COc1ccc(S(=O)(=O)N(C)c2ccc(Oc3ccc(NC(=O)c4ccccc4OC(F)(F)F)c(C(=O)O)c3)cc2)cc1` [11:19, 5-{4-[(4-Methoxy-benzenesulfonyl)-methyl-amino]-phenoxy}-2-(2-trifluoromethoxy-benzoylamino)-benzoic acid], for which the inhibition at 10 µM was found to be 97%.
Still for that read-out and setting: in the case of `CCCCOc1ccc(S(=O)(=O)Nc2ccc(Oc3ccc(N(C)C(=O)c4cccc(Cl)c4Cl)c(C(=O)O)c3)cc2)cc1` [11:10, 5-[4-(4-butoxybenzenesulfonyl-amino)phenoxy]-2-[(2,3-di-chlorobenzoyl)methylamino]-benzoic acid] it was 95%; in that of `CCCCOc1ccc(S(=O)(=O)Nc2ccc(Oc3cccc(NCc4cccc(F)c4F)c3)cc2C(=O)O)cc1` [23:1, 2-(4-Butoxybenzenesulfonylamino)-5-[3-(2,3-difluorobenzylamino)-phenoxy]benzoic acid], 100%; in that of `O=C(NS(=O)(=O)c1ccc(F)c(F)c1)c1cccc(Oc2ccc(Nc3ccc(Cl)cc3)c(C(=O)O)c2)c1` [20:2, 2-(4-Chloro-phenylamino)-5-[3-(3,4-difluoro-benzenesulfonylamino-carbonyl)-phenoxy]-benzoic acid], 96%.
Take `CCCCc1ccc(C(=O)Nc2ccc(Oc3ccc(N(C)C(=O)c4ccc(CCCC)cc4)cc3)cc2C(=O)O)cc1` [9:1, 5-(4-((N-methyl)-4-butylbenz-amido)phenoxy)-2-(4-butylbenz-amido)benzoic acid]: the “% inh.” value was found to be 100%.
Regarding `CCCCOc1ccc(S(=O)(=O)Nc2ccc(Oc3ccc(S(=O)(=O)Nc4ccc(Cl)cc4)cc3)cc2C(=O)O)cc1` [25:2, 2-(4-Butoxy-benzenesulfonyl-amino)-5-[4-(4-chlorophenylsulfamoyl)phenoxy]benzoic acid], the inhibition at 10 µM was 100%.
Same read-out and setting: in the case of `O=C(O)c1cc(Sc2ccc(Nc3ccc(Cl)cc3)cc2)ccc1Nc1ccc(Cl)cc1` [Example 14:1, 2-(4-chlorophenylamino)-5-[4-(4-chlorophenylamino)-phenylsulfanyl]benzoic acid] it was 98%.
In the case of `CCCCc1ccc(C(=O)Nc2ccc(Oc3ccc(NC(=O)c4ccc(Cl)cc4Cl)c(CC(=O)O)c3)cc2C(=O)O)cc1` [6:1, 2-(4-butyl-benzoyl-amino)-5-[3-carboxy-methyl-4-(2,4-dichloro-benzoylamino)phenoxy]-benzoic acid], the “% inh.” value turned out to be 99%.
The same measure, in the same setting: in the case of “5-{4-[(4-methoxybenzene-sulfonyl)methylamino]-phenoxy}-2-(4-trifluoromethyl-benzoylamino)benzoic acid [11:3]” it was 98%.
`O=C(NS(=O)(=O)c1cccc(Cl)c1F)c1cccc(Oc2ccc(Nc3ccc(Cl)cc3)c(C(=O)O)c2)c1` [20:3, 5-[3-(3-Chloro-2-fluoro-benzene-sulfonylaminocarbonyl)-phenoxy]-2-(4-chloro-phenylamino)-benzoic acid]: the inhibition at 10 µM is 97%.
On the same count and under the same terms, in the case of `CCCCc1ccc(S(=O)(=O)Nc2ccc(Sc3ccc(NS(=O)(=O)c4ccc(CCCC)cc4)c(C(=O)O)c3)cc2)cc1` [14:3, 2-(4-butyl-benzenesulfonyl-amino)-5-[4-(4-butyl-benzen-sulfonylamino)phenyl-sulfanyl]benzoic acid] it was 98%.
